Measured values reported in patent US5783402A, “Method of identifying ligands and anatgonists of G-protein coupled receptor” (The United States of America as represented by the …, priority 1996, dated 1998).

Tests used:
[1] = system: endogenous receptors for adenosine in LVIP2.OZc cells; assay: β-galactosidase (ONPG) induction in untransfected LVIP2.OZc cells by NECA (endogenous adenosine receptors); assay type: cell-based, mouse
Description: (§1) FIG. 1. Detection of β-galactosidase of color development of o-nitrophenol. LVIP2.OZc cells were exposed for 8 hours to control medium (containing 0.5 mM IBMX) (.quadrature.), or control medium containing 0.5 μM forskolin (.cndot.), or control medium containing 1 μM (.box-solid.) or 10 NECA (.tangle-solidup.). After cell lysis and addition of the substrate ONPG, enzyme activity was measured as optical density at 405 nm at various time intervals. Data are mean±S.D. taken from one experiment that is representative of several.
(§2) FIG. 2. Induction of β-galactosidase as a response to length of ligand exposure. LVIP2.OZc cells were incubated for 1, 2, 4, 6, 8, 12, 15 and 18 hours in control medium (containing 0.5 mM IBMX) (.quadrature.), or control medium containing 0.5 μM forskolin (.cndot.), or control medium containing 1 μM NECA (.box-solid.), or control medium containing 1 μM PGE2 (.tangle-solidup.). Data are mean±S.D. from one representative experiment.
(§3) FIG. 3. Induction of β-galactosidase as a response to different doses of ligands. LVIP2.OZc cells were treated for 8 hours with control medium (containing 0.5 mM IBMX), and 0.1 or 0.2 or 0.5 or 1 μM forskolin (.cndot.), control medium and 0.1 or 0.5 or 1 or 10 μM NECA (.box-solid.), control medium containing 0.1 or 0.5 or 1 or 10 μM PGE2 (.tangle-solidup.). Data are mean±S.D. from a representative experiment.
(§4) Care should be taken to avoid foaming.
Therefore, a quantitative assay was developed for the cAMP-mediated increase in β-galactosidase activity. This assay was performed in 96 well plates after solubilization of the cells and incubation with the substrate ONPG. Thus, the change in optical density over a defined period of time was directly proportional to the level of β-galactosidase activity. The optical density increased linearly with time up to 1.5. The LVIP2.OZc cells were determined to contain endogenous […] -coupled receptors for PGE (prostaglandin E2) and adenosine. In pilot studies, untransfected cells were treated for 8 hours with IBMX in the presence or absence of NECA [5'-(N-ETHYLCARBOXAMIDO)-ADENOSINE, adenosine A2 receptor agonist], or forskolin, to increase intracellular cAMP levels (FIG. 1). […] The enzyme levels generated by 1 μM NECA, 10 μM NECA, and 0.5 μM forskolin were determined to be 8, 30, and 48 -fold higher, respectively, than in the IBMX control cells. The differences were discernible by visual examination after 3 to 6 hours.
In pilot studies, cells were exposed to IBMX in the presence or absence for forskolin (0.5 μM), NECA (1 μM), or prostaglandin E2 (1 μM) for 2, 4, 6, 8, 15, or 18 hours and their β-galactosidase activities measured. […] Dose-response data (FIG. 3) were obtained by treating cells with forskolin, NECA, or PGE2 for 8 hours. […]

LVIP2.OZc cells [2] = assay: X-gal staining of LVIP2.OZc cells (blue positive cells) after forskolin + IBMX; assay type: cell-based, mouse; details: forskolin 5 μM + IBMX 0.5 mM, 6 to 18 hours
Description: Hygromycin-resistant Ltk^- clones were screened for induction of β-galactosidase after addition of forskolin (10 μM) and IBMX (0.5 μM).
In preliminary experiments, forskolin (5 μM) and IBMX (0.5 mM) was used to increase cyclic AMP levels. […] Next, the cells were transfected with human β2 -adrenergic receptor cDNA in the pcD expression vector. […] Ascorbic acid was added to prevent oxidation of isoproterenol.

LVIP2.OZc cells [3] = assay: β-galactosidase (ONPG) induction in untransfected LVIP2.OZc cells by forskolin; assay type: cell-based, mouse; details: 8 hours
Description: as §1, §2, §3, §4
(§5) Therefore, a quantitative assay was developed for the cAMP-mediated increase in β-galactosidase activity. […] The LVIP2.OZc cells were determined to contain endogenous […] -coupled receptors for PGE (prostaglandin E2) and adenosine. […] The enzyme levels generated by 1 μM NECA, 10 μM NECA, and 0.5 μM forskolin were determined to be 8, 30, and 48 -fold higher, respectively, than in the IBMX control cells. […]
(§6) In pilot studies, cells were exposed to IBMX in the presence or absence for forskolin (0.5 μM), NECA (1 μM), or prostaglandin E2 (1 μM) for 2, 4, 6, 8, 15, or 18 hours and their β-galactosidase activities measured. […]

dopamine D2L receptor = details: 10 μM agonist, 0.5 μM forskolin, IBMX, 6 hours
Description: Data are mean±S.D. from one representative experiment. […] Data are mean±S.D. from one representative experiment. […] Data are mean±S.D. from one representative experiment.
Transfection of cells. Cells were transfected by the calcium phosphate transfection protocol of Chen and Okayama. For each plasmid DNA preparation, the amount of DNA required for formation of an optimum calcium phosphate-DNA precipitate varies; thus, a dose response study is desirable. […]
β-Galactosidase microassay. β-galactosidase activity was measured with a microplate reader (Molecular Devices, Palo Alto). […]
All the steps in the microassay were carried out at room temperature. […] After an additional 10 minutes, 24 μl of ONPG (4 mg/ml in assay buffer; prepared daily) was added, and the optical density per well at 405 nm was determined with a plate reader. Readings were taken through 1.5 OD at 405 nm, within the linear portion of the color development. The initial rates, expressed as mOD/minute, are linearly related to β-galactosidase enzyme concentration over an enzyme concentration range of 0.1 to 100 mU (one unit hydrolyzes one micromole of ONPG per minute at 25 degrees, pH 7.5). […]

rat cannabinoid receptor = assay: Inhibition of forskolin-mediated induction of β-galactosidase in cannabinoid receptor transfected LVIP2.OZc cells; assay type: cell-based; details: 1 μM CP55940, 0.5 μM forskolin, IBMX, 6 hours
Description: Cells were exposed for 6 hours to medium containing 0.5 mM IBMX, 0.5 mM BSA and 0.5 μM forskolin ±1 μM CP55940.
One hundred microliters of medium containing IBMX/ascorbic acid or forskolin (1 μM)/IBMX/ascorbic acid were added to control wells. […] Each set of conditions was carried out in quadruplicate. After an eight hour exposure to ligand the cells were washed with 200 μl phosphate buffered saline and β-galactosidase activity was assayed.
β-Galactosidase microassay. β-galactosidase activity was measured with a microplate reader (Molecular Devices, Palo Alto).
All the steps in the microassay were carried out at room temperature. The assay buffer is composed of 100 mM sodium phosphate, 2 mM MgSO4, 0.1 mM MnCl2, pH 8.0. The adherent cells were washed with PBS, the plate drained and 25 μl/well of hypotonic lysis buffer added to each well, (dilute 1 part buffer with 9 parts water). […] After an additional 10 minutes, 24 μl of ONPG (4 mg/ml in assay buffer; prepared daily) was added, and the optical density per well at 405 nm was determined with a plate reader. Readings were taken through 1.5 OD at 405 nm, within the linear portion of the color development. The initial rates, expressed as mOD/minute, are linearly related to β-galactosidase enzyme concentration over an enzyme concentration range of 0.1 to 100 mU (one unit hydrolyzes one micromole of ONPG per minute at 25 degrees, pH 7.5).

[4] = system: endogenous receptors for PGE (prostaglandin E2) in LVIP2.OZc cells; assay: β-galactosidase (ONPG) induction in untransfected LVIP2.OZc cells by PGE2 (endogenous PGE receptors); assay type: cell-based, mouse; details: 8 hours, IBMX
Description: as §2
as §3, with “Data are mean±S.D. from a representative experiment.” left out
as §5, §6

Structure (SMILES): CCNC(=O)[C@H]1O[C@@H](n2cnc3c(N)ncnc32)[C@H](O)[C@@H]1O [NECA, 5'-(N-ETHYLCARBOXAMIDO)-ADENOSINE]
- enzyme level relative to IBMX control cells ([1]; 1 μM NECA, 8 hours, IBMX): 8 -fold
- concentration required to achieve maximum enzyme induction ([1]; 8 hours, IBMX): 10 µM
- β-galactosidase activity versus IBMX-treated control cells (in words) ([1]; 8 hours, IBMX): considerably higher levels
- enzyme level relative to IBMX control cells ([1]; lvip2.ozc cells, 8 h, 10 µM): 30 -fold

Structure (SMILES): C=C[C@@]1(C)CC(=O)[C@]2(O)[C@@]3(C)[C@@H](O)CCC(C)(C)[C@@H]3[C@H](O)[C@H](OC(C)=O)[C@@]2(C)O1 [forskolin]
- cells that developed a blue color (LVIP2.OZc cells [2]): More than 90%
- β-galactosidase activity versus IBMX-treated control cells (in words) (LVIP2.OZc cells [3]): considerably higher levels
- concentration producing maximum effect (LVIP2.OZc cells [3]; IBMX): 0.5 µM
- fold induction at 0.5 µM (LVIP2.OZc cells [3]; Mus musculus, 0.5 μM forskolin, IBMX, read-out: enzyme level relative to IBMX control cells): 48

Structure (SMILES): NCCc1ccc(O)c(O)c1 [dopamine]
- inhibition of forskolin-stimulated increase of β-galactosidase activity (dopamine D2L receptor): Significant inhibition

Structure (SMILES): CCCCCCC(C)(C)c1ccc([C@@H]2C[C@H](O)CC[C@H]2CCCO)c(O)c1 [CP55940]
- decrease of forskolin stimulated activity (rat cannabinoid receptor): 15%

Structure (SMILES): CCCCC[C@H](O)/C=C/[C@H]1[C@H](O)CC(=O)[C@@H]1C/C=C\CCCC(=O)O [PGE2, prostaglandin E2]
- concentration required to achieve maximum enzyme induction [4]: 10 µM
